According to patent publication US20070167412A1, “HALOCOMBSTATINS AND METHODS OF SYNTHESIS THEREOF” (ARIZONA BOARD OF REGENTS, priority 2003, published 2007):
Converted amounts (≈) assume the structure as drawn.

Key:
tubulin [1] = experiment: inhibition of [3H]colchicine binding to tubulin; conditions: 1.0 μM tubulin, 5.0 μM [3H]colchicine, inhibitor at 1.0 μM, 10 minutes at 37° C.
Experimental: (§1) Tubulin polymerization was evaluated by turbidimetry at 350 nm using Beckman DU7400/7500 spectrophotometers as described in detail elsewhere. […] Varying concentrations of drug were preincubated with 10 μM:M ([…]) purified tubulin (See Hamel, E., et al., Separation of Active Tubulin and Microtubule-associated Proteins by Ultracentrifiigation and Isolation of a Component Causing the Formation of Microtubule Bundles, Biochemistry 1984, 23, 4173-4184). Samples were chilled on ice, GTP (0.4 mM) was added, and polymerization was followed at 30° C. The parameter measured was extent of the reaction after 20 minutes. Coichicine binding was measured as described in detail previously. Reaction mixtures contained 1.0 μM :M tubulin, 5.0:M, [^3H]colchicine (from Dupont), and inhibitor at 1.0 μM:M. Incubation was for 10 minutes at 37° C.

[2] = tested on: microtubules in human umbilical vein endothelial cells (HUVEC); experiment: disruption of microtubules in HUVEC; format: cell-based
From the text: HUVECs were isolated according to methods know to one of skill in the art (see Jaffe, E. A. et al., Culture of Human Endothelial Cells Derived From Umbilical Veins. Identification by Morphologic and Immunologic Criteria, J. Clin. Invest. 1973, 52, 2754-2756.)

purified tubulin [3] = tested on: T1, purified tubulin; experiment: inhibition of tubulin polymerization (turbidimetry); format: biochemical; conditions: 10 μM tubulin, GTP 0.4 mM, 30° C., extent after 20 minutes; read-out: Inhibition of polymerization IC50 ± S.D.
T1 construct: other: 10 μM tubulin, GTP 0.4 mM, 30° C., extent after 20 minutes
Experimental: as §1
Tubulin Evaluations: Tubulin polymerization was evaluated by turbidimetry at […] using Beckman DU7400/7500 spectrophotometers as known to one of skill in the art. Varying concentrations of the compound were preincubated with 10 μM. […]

Prostate DU-145 = experiment: human cancer cell growth inhibition, sulforhodamine B assay; format: cell-based; conditions: 48 hours
In short: (§2)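 NCI sulforhodamine B protocol: cells exposed to compounds for 48 h, then fixed with trichloroacetic acid, stained with sulforhodamine B and read on a microplate reader.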

Pancreas BXPC-3 = experiment: as above; format: cell-based; conditions: 48 hours
In short: as §2

Breast MCF-7 = experiment: as above; format: cell-based; conditions: 48 hours
In short: as §2

Lung-NSC NCI-H460 = experiment: as above; format: cell-based; conditions: 48 hours
In short: as §2

CNS SF268 = experiment: as above; format: cell-based; conditions: 48 hours
In short: as §2

Colon KM20L2 = experiment: as above; format: cell-based; conditions: 48 hours
In short: as §2

Escherichia coli = experiment: reference broth microdilution susceptibility assay; format: cell-based; conditions: Table III
In short: (§3)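 Standardized microdilution in liquid medium; the aerobic-bacteria standard (M7-A5) applies to the bacterial species and the yeast standard (M27-A) to the fungal ones.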

Enterobacter cloacae = experiment: reference broth microdilution susceptibility assay; format: cell-based; conditions: Table III
In short: (§4)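 Compounds are serially diluted in broth and tested for microbial susceptibility by the standard microdilution procedure. Bacteria are handled per approved standard M7-A5 and yeasts per approved standard M27-A.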

Neisseria gonorrhoeae = experiment: reference broth microdilution susceptibility assay; format: cell-based; conditions: Table III
In short: as §4

Streptococcus pneumoniae = experiment: reference broth microdilution susceptibility assay; format: cell-based; conditions: Table III
In short: as §4

Micrococcus luteus = experiment: reference broth microdilution susceptibility assay; format: cell-based; conditions: Table III
In short: as §3

Staphylococcus aureus = experiment: reference broth microdilution susceptibility assay; format: cell-based; conditions: Table III
In short: as §4

Candida albicans = experiment: reference broth microdilution susceptibility assay; format: cell-based; conditions: Table III
In short: as §3

Enterococcus faecalis = experiment: reference broth microdilution susceptibility assay; format: cell-based; conditions: Table III
In short: as §4

Cryptococcus neoformans [4] = experiment: reference broth microdilution susceptibility assay; format: cell-based; conditions: Table III
In short: as §3

[5] = tested on: Stenotrophomonas maltophilia; experiment: reference broth microdilution susceptibility assay; format: cell-based; conditions: Table III
In short: as §4

[6] = tested on: human umbilical vein endothelial cells (HUVEC); experiment: Matrigel cord formation assay; format: cell-based; conditions: at both 0.01 and 0.001 μg/mL compared to untreated controls
Experimental: In vitro Matrigel antiangiogenesis assays were implemented according to the Developmental Therapeutics Program NCI/NIH protocols known to one of skill in the art. Matrigel, a basement membrane matrix, was obtained from BD Biosciences. Growth inhibition and cord formation assays were Conducted using human umbilical vein endothelial cells obtained from GlycoTeCh. HUVEC cells were grown in EGM-2 medium.
An aliquot of sixty microliters was placed in each well of an ice-cold 96-well plate. The plates were then left for 15 minutes at room temperature, then incubated for 30 minutes at 37° C. to permit the matrigel to polymerize. Meanwhile, HUVEC cells were harvested and diluted to a concentration of 2×10^5 cells/ml. A solution of 100 μL containing the compounds to be tested was added next. After 24 hours incubation, pictures were taken for each concentration using an inverted Nikon Diaphot microscope and D100 digital camera. Drug effect was assessed, compared to untreated controls, by measuring the length of cords formed and number ofjunctions.

solubility in D2O = format: physicochemical; conditions: 1 mL D2O at 25° C.
[7] = earlier study, Lin et al. 1988; cited from earlier work
Cryptococcus neoformans [8] = conditions: previously shown, Pettit et al. 2000; cited from earlier work
purified tubulin [9] = conditions: earlier study, Lin et al. 1988; cited from earlier work
tubulin [10] = conditions: earlier study, Lin et al. 1988; cited from earlier work

3-Cloro-4,4′,5-trimethoxy-3′-hydroxy-Z-stilbene [Compound 12a]
Inhibition of colchicine binding % inhibition ± S.D. (tubulin [1]): 85 ± 4% | ability to disrupt microtubules in HUVEC [2]: disrupt microtubules | IC50 (purified tubulin [3]): 1600 ± 300 nM | Human cancer cell line inhibition (GI50) Prostate DU-145 (Prostate DU-145; Table I): <0.001 µg/mL | Human cancer cell line inhibition (GI50) Pancreas-a BXPC-3 (Pancreas BXPC-3; Table I): 0.043 µg/mL | Human cancer cell line inhibition (GI50) Breast adn MCF-7 (Breast MCF-7; Table I): <0.001 µg/mL | Human cancer cell line inhibition (GI50) Lung-NSC NCI-H460 (Lung-NSC NCI-H460; Table I): <0.001 µg/mL | Human cancer cell line inhibition (GI50) CNS SF268 (CNS SF268; Table I): <0.001 µg/mL | Human cancer cell line inhibition (GI50) Colon KM20L2 (Colon KM20L2; Table I): 0.15 µg/mL | Range of minimum inhibitory concentration, Escherichia coli (Escherichia coli): * (no inhibition at 64 μg/ml) | Range of minimum inhibitory concentration, Enterobacter cloacae (Enterobacter cloacae): * (no inhibition at 64 μg/ml) | Range of minimum inhibitory concentration, Neisseria gonorrhoeae (Neisseria gonorrhoeae): 16 µg/mL | Range of minimum inhibitory concentration, Streptococcus pneumoniae (Streptococcus pneumoniae): 32 to 64 µg/mL | Range of minimum inhibitory concentration, Micrococcus luteus (Micrococcus luteus): 32 µg/mL | Range of minimum inhibitory concentration, Staphylococcus aureus (Staphylococcus aureus): * (no inhibition at 64 μg/ml) | Range of minimum inhibitory concentration, Candida albicans (Candida albicans): * (no inhibition at 64 μg/ml) | Range of minimum inhibitory concentration, Enterococcus faecalis (Enterococcus faecalis): * (no inhibition at 64 μg/ml) | Range of minimum inhibitory concentration, Cryptococcus neoformans (Cryptococcus neoformans [4]): 64 µg/mL | Range of minimum inhibitory concentration, Stenotrophomonas maltophilia [5]: * (no inhibition at 64 μg/ml)

COc1ccc(/C=C\c2cc(F)c(OC)c(OC)c2)cc1O [Compound 11a, 3-Fluoro-4,4′,5-trimethoxy-3′-hydroxy-Z-stilbene]
Inhibition of colchicine binding % inhibition ± S.D. (tubulin [1]): 75 ± 6% | ability to disrupt microtubules in HUVEC [2]: disrupt microtubules | IC50 (purified tubulin [3]): 1500 ± 200 nM | GI50 (Prostate DU-145; Homo sapiens, DU-145, Table I, read-out: Human cancer cell line inhibition (GI50) Prostate DU-145): < 0.01 µg/mL | GI50 (Pancreas BXPC-3; Homo sapiens, BXPC-3, Table I, read-out: Human cancer cell line inhibition (GI50) Pancreas-a BXPC-3): 0.016 µg/mL (≈ 0.0526 µM) | GI50 (Breast MCF-7; Homo sapiens, MCF7, Table I, read-out: Human cancer cell line inhibition (GI50) Breast adn MCF-7): < 0.01 µg/mL | GI50 (Lung-NSC NCI-H460; Homo sapiens, NCI-H460, Table I, read-out: Human cancer cell line inhibition (GI50) Lung-NSC NCI-H460): < 0.01 µg/mL | GI50 (CNS SF268; Homo sapiens, SF-268, Table I, read-out: Human cancer cell line inhibition (GI50) CNS SF268): < 0.01 µg/mL | GI50 (Colon KM20L2; Homo sapiens, KM-20L2, Table I, read-out: Human cancer cell line inhibition (GI50) Colon KM20L2): 1.1 µg/mL (≈ 3.61 µM) | Range of minimum inhibitory concentration, Escherichia coli (Escherichia coli): * (no inhibition at 64 μg/ml) | Range of minimum inhibitory concentration, Enterobacter cloacae (Enterobacter cloacae): * (no inhibition at 64 μg/ml) | Range of minimum inhibitory concentration, Neisseria gonorrhoeae (Neisseria gonorrhoeae): 32 µg/mL | Range of minimum inhibitory concentration, Streptococcus pneumoniae (Streptococcus pneumoniae): 64 µg/mL | Range of minimum inhibitory concentration, Micrococcus luteus (Micrococcus luteus): 32 to 64 µg/mL | Range of minimum inhibitory concentration, Staphylococcus aureus (Staphylococcus aureus): * (no inhibition at 64 μg/ml) | Range of minimum inhibitory concentration, Candida albicans (Candida albicans): * (no inhibition at 64 μg/ml) | Range of minimum inhibitory concentration, Enterococcus faecalis (Enterococcus faecalis): * (no inhibition at 64 μg/ml) | Range of minimum inhibitory concentration, Cryptococcus neoformans (Cryptococcus neoformans [4]): 64 µg/mL | Range of minimum inhibitory concentration, Stenotrophomonas maltophilia [5]: * (no inhibition at 64 μg/ml) | Cords length as well as junction numbers [6]: markedly reduced

C1CCNCC1.C1CCNCC1.COc1ccc(/C=C\c2cc(I)c(OC)c(OC)c2)cc1OP(=O)(O)O [O]
human cancer cell line growth inhibition (GI50) Prostate DU-145 (Prostate DU-145; Table Ia): 0.0029 µg/mL | human cancer cell line growth inhibition (GI50) Pancreas BXPC-3 (Pancreas BXPC-3; Table Ia): 0.32 µg/mL | human cancer cell line growth inhibition (GI50) Breast MCF-7 (Breast MCF-7; Table Ia): 0.0065 µg/mL | human cancer cell line growth inhibition (GI50) Lung-NSC NCI-H460 (Lung-NSC NCI-H460; Table Ia): 0.0036 µg/mL | human cancer cell line growth inhibition (GI50) CNS SF268 (CNS SF268; Table Ia): 0.0044 µg/mL | human cancer cell line growth inhibition (GI50) Colon KM20L2 (Colon KM20L2; Table Ia): 0.51 µg/mL | Solubility (solubility in D2O): ≧4 mg/mL

combretastatin A-3 [Compound 3a, reference compound]
activity relative to CA4 (1a) as an inhibitor of cell growth [7]: about one seventh as active | inhibition of growth of the pathogenic fungus Cryptococcus neoformans (Cryptococcus neoformans [8]): inhibited growth | activity relative to CA4 (1a) as an inhibitor of tubulin assembly (purified tubulin [9]): about half as active | Human cancer cell line inhibition (GI50) Prostate DU-145 (Prostate DU-145; Table I): 0.0043 µg/mL | Human cancer cell line inhibition (GI50) Pancreas-a BXPC-3 (Pancreas BXPC-3; Table I): 2.3 µg/mL | Human cancer cell line inhibition (GI50) Breast adn MCF-7 (Breast MCF-7; Table I): 0.49 µg/mL | Human cancer cell line inhibition (GI50) Lung-NSC NCI-H460 (Lung-NSC NCI-H460; Table I): 0.19 µg/mL | Human cancer cell line inhibition (GI50) CNS SF268 (CNS SF268; Table I): 0.0083 µg/mL | Human cancer cell line inhibition (GI50) Colon KM20L2 (Colon KM20L2; Table I): 1.2 µg/mL | activity relative to CA4 (1a) as an inhibitor of colchicine binding to tubulin (tubulin [10]): about one fifth as active
